Data taken from EP0160546A2, “Cephalosporin compounds, and their production, and medicaments containing them” (YAMANOUCHI PHARMACEUTICAL CO. LTD., priority 1984, dated 1985).
Values after ≈ are worked out from the molar mass of the structure shown. Where two headings read alike, the source gives them in different places.

Columns and labels:
Serr. marcescense NY-10 = assay: Antibacterial activity (minimum effective inhibitory concentration); assay type: cell-based; settings: read-out: minimum effective inhibitory concentrations
Excerpt: (§1) Antibacterial activities (minimum effective inhbitory concentrations) of compounds of formula I (taken from the following Examples) are shown in the following Table.

[1] = system: Kleb. pneumoniae ATCC 10031; assay: as above; assay type: cell-based; settings: Klebsiella pneumoniae, ATCC10031, read-out: minimum effective inhibitory concentrations
Excerpt: as §1

[2] = system: Ps. aeruginosa NCTC 10490; assay: as above; assay type: cell-based; settings: Pseudomonas aeruginosa, NCTC10490, read-out: minimum effective inhibitory concentrations
Excerpt: as §1

E. coli NIHJ = assay: as above; assay type: cell-based; settings: Escherichia coli, read-out: minimum effective inhibitory concentrations
Excerpt: as §1

[3] = system: Staph. epidermidis IID 866; assay: as above; assay type: cell-based; settings: Staphylococcus epidermidis, IID866, read-out: minimum effective inhibitory concentrations
Excerpt: as §1

Solubility in water = assay type: physicochemical

SMILES	MIC (Serr. marcescense NY-10; Serr. marcescense NY-10)	MIC [1]	MIC [2]	MIC (E. coli NIHJ; E. coli NIHJ)	MIC [3]	solubility (Solubility in water)	MIC (Serr. marcescense NY-10)	MIC (E. coli NIHJ)
CON=C(C(=O)NC1C(=O)N2C(C(=O)[O-])=C(C[n+]3ccc4c(c3)N(OC)C(=O)CO4)CSC12)c1csc(N)n1 (stereo not drawn) [Example 10]	0.2 µg/mL (≈ 0.347 µM)	< 0.2 µg/mL	0.39 µg/mL (≈ 0.678 µM)	< 0.2 µg/mL	6.25 µg/mL (≈ 10.9 µM)			
CON=C(C(=O)NC1C(=O)N2C(C(=O)[O-])=C(C[n+]3ccc4c(c3)NCCO4)CSC12)c1csc(N)n1 (stereo not drawn) [Example 13, (Z)-7-[α-(2-amino-4-thiazolyl) -α-methoxyiminoacetamido]-3-[[6-(3,4-dihydro-2H-pyrido[4,3-b1-1,4-oxazinio)]methyl]-Δ^3-cephem-4-carboxylate]	< 0.2 µg/mL	< 0.2 µg/mL	0.78 µg/mL (≈ 1.47 µM)	< 0.2 µg/mL	0.39 µg/mL (≈ 0.734 µM)			
CO/N=C(\C(=O)N[C@@H]1C(=O)N2C(C(=O)[O-])=C(C[n+]3ccc(OCC(O)CO)c(N)c3)CS[C@H]12)c1csc(N)n1 (stereo partly drawn) [Example 6, (Z ) -7-[α-(2-amino-4-thiazolyl)-α-methoxyiminoacetamido]-3-[3-amino-4-(2,3-dihydroxypropyloxy)pyridiniomethyl]-Δ^3-cephem-4-carboxylate]	< 0.2 µg/mL	< 0.2 µg/mL	1.56 µg/mL (≈ 2.69 µM)	< 0.2 µg/mL	0.78 µg/mL (≈ 1.35 µM)			
CC(C)(O/N=C(\C(=O)N[C@@H]1C(=O)N2C(C(=O)[O-])=C(C[n+]3ccccc3)CS[C@H]12)c1csc(N)n1)C(=O)O [cefta-zidime, reference compound]		< 0.2 µg/mL	0.78 µg/mL (≈ 1.43 µM)		3.13 µg/mL (≈ 5.73 µM)		< 0.2 µg/mL	< 0.2 µg/mL

Further lines, with some results ahead:

MIC (Serr. marcescense NY-10; Serr. marcescense NY-10)	MIC [1]	MIC [2]	MIC (E. coli NIHJ; E. coli NIHJ)	MIC [3]	solubility (Solubility in water)	SMILES	MIC (Serr. marcescense NY-10)	MIC (E. coli NIHJ)
< 0.2 µg/mL	< 0.2 µg/mL	1.56 µg/mL (≈ 2.78 µM)	< 0.2 µg/mL	1.56 µg/mL (≈ 2.78 µM)		CON=C(C(=O)NC1C(=O)N2C(C(=O)[O-])=C(C[n+]3ccc4c(c3)N(O)C(=O)CO4)CSC12)c1csc(N)n1 (stereo not drawn) [Example 12, (Z)-7-[α-(2-amino-4-thiazolyl)-α-methoxyiminoacetamido]-3-[[6-(4-hydroxy-3-oxo-3,4-dihydro-2H-pyrido[4,3-b]-1,4-oxazinio)]methyl]-Δ^3-cephem-4-carboxylate]		
< 0.2 µg/mL	< 0.2 µg/mL	1.56 µg/mL (≈ 3.1 µM)	< 0.2 µg/mL	0.2 µg/mL (≈ 0.397 µM)		CO/N=C(\C(=O)N[C@@H]1C(=O)N2C(C(=O)[O-])=C(C[n+]3ccc(C)c(N)c3)CS[C@H]12)c1csc(N)n1 [Example 9, (Z)-1-[α-(2-amino-4-thiazolyl)-α-methoxyiminoacet--amido]-3-(3-amino-4-methylpyridiniomethyl)-Δ^3-cephem-4-carboxylic acid]		
< 0.2 µg/mL	< 0.2 µg/mL	1.56 µg/mL (≈ 3.09 µM)	< 0.2 µg/mL	0.2 µg/mL (≈ 0.396 µM)		CON=C(C(=O)NC1C(=O)N2C(C(=O)[O-])=C(C[n+]3ccc(N)c(N)c3)CSC12)c1csc(N)n1 (stereo not drawn) [Example 3, (Z)-7-[λ-(2-amino-4-thiazolyl)-λ-(methoxyimino)acetamido]-3-(3,4-diamino-1-pyridiniomethyl)-Δ^3-cephem-4-carboxylate]		
< 0.2 µg/mL	< 0.2 µg/mL	1.56 µg/mL (≈ 3 µM)	< 0.2 µg/mL	0.2 µg/mL (≈ 0.385 µM)	> 230 mg/mL	CO/N=C(\C(=O)N[C@@H]1C(=O)N2C(C(=O)[O-])=C(C[n+]3ccc(OC)c(N)c3)CS[C@H]12)c1csc(N)n1 [Example 5, (Z)-7-[α-(2-amino-4-thiazolyl)-α-methoxyiminoacetamido,]-3-(3-amino-4-methoxypyridiniomethyl)-Δ^3-cephem-4-carboxylate]		
< 0.2 µg/mL	< 0.2 µg/mL	0.39 µg/mL (≈ 0.676 µM)	< 0.2 µg/mL	1.56 µg/mL (≈ 2.71 µM)		CC(C)(ON=C(C(=O)NC1C(=O)N2C(C(=O)[O-])=C(C[n+]3cc(N)cc(N)c3)CSC12)c1csc(N)n1)C(=O)O (stereo not drawn) [Example 2, (Z)-7-[λ-(2-amino-4 thiazolyl)-λ-(1-carboxy-1-methylethoxyimino)acetamido]--3-(3,5-diamino-1-pyridiniomethyl)-Δ^3-cephem-4-carboxylate]		
< 0.2 µg/mL	< 0.2 µg/mL	1.56 µg/mL (≈ 2.86 µM)	< 0.2 µg/mL	0.78 µg/mL (≈ 1.43 µM)		CON=C(C(=O)NC1C(=O)N2C(C(=O)[O-])=C(C[n+]3ccc4c(c3)NC(=O)CO4)CSC12)c1csc(N)n1 (stereo not drawn) [Example 11, (Z)-7-[α-(2-amino-4-thiazolyl)-α-methoxyimino-acetamido]-3-[[6-(3-oxo-3,4-dihydro-2H-pyrido[4,3-b]-1,4-oxazinio)]methyl -Δ^3-cephem-4-carboxylate]		
